Structures can show the parent of a compound that is named as a salt. Where two headings read alike, the source gives them in different places.
How the values were obtained:
[1] = biological target: T1, GCN2 (Homo sapiens, UniProt Q9P2K8); assay: In vitro phosphorylation assay: GCN2 activation (auto-phosphorylation); format: biochemical; conditions: for decrease in GCN2 auto-phosphorylation: single dose of 100 µM, compared to DMSO
T1 construct: expressed as a truncated version (192-1024) in fusion after a glutathione S-transferase tag; purchased SignalChem E12-11G
T1 sequence (Q9P2K8 192-1024): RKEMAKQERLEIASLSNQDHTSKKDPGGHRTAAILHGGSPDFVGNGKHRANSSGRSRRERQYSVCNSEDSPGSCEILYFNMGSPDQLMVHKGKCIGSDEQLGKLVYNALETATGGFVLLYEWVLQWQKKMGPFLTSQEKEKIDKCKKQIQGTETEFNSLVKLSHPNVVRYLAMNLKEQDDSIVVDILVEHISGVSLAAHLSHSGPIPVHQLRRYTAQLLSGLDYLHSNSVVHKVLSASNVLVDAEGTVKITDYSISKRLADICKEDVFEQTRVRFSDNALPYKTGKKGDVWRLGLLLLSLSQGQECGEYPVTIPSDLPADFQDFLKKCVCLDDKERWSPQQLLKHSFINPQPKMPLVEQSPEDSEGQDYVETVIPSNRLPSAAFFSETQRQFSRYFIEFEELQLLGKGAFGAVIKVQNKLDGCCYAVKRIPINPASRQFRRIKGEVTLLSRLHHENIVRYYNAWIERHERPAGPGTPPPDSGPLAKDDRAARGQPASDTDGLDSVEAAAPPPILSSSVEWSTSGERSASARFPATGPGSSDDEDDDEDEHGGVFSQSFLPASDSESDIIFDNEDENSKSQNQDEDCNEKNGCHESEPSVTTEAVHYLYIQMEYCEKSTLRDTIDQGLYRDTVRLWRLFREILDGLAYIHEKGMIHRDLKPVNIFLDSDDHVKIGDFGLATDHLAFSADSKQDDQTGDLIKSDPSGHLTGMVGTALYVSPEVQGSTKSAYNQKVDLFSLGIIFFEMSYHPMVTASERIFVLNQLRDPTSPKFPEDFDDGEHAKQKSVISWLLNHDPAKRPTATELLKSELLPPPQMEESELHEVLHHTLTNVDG
Description: Enzymes. GCN2 was purchased from SignalChem (EIF2AK4, cat. #E12-11G). This human recombinant protein was expressed as a truncated version (192-1024) in fusion after a glutathione S-transferase tag (approximate molecular weight of 132 kDa). Recombinant full-length IN was expressed in E. coli BL21 pLys (IPTG induction) and purified on a nickel chelating column, as described. Integrity and purity were checked by direct Coomassie coloration of elution fractions on SDS-PAGE before dialysis to remove imidazole. Protein concentration was determined using a NanoDrop 2000 with the following parameters: molecular weight: 34 kDa, extinction coefficient ϵ = 50,460 mol^−1cm^−1L.
(§1) In vitro phosphorylation assay. Phosphorylation of IN (700 nM) was carried out using 25 nM of GCN2 in a reaction buffer containing 10 mM Tris-HCl pH 7.5, 50 mM NaCl, 15 mM MgCl2, 7.5 mM MnCl2, 10 mM DTT, 0.005% Nonidet P-40, 100 µM ATP, 50 µCi/µL of [γ-^32P]-ATP (3000 Ci/mmole, Perkin Elmer). Reactions (20 µL) were stopped after a 60 min incubation at 30 °C by adding 10 µL of loading buffer [80 mM Tris-HCl pH 6.8, 100 mM DTT, 10% glycerol, 1% sodium dodecyl sulfate (SDS) and 0.05% bromophenol blue]. Samples were then loaded onto a 10% denaturating SDS-PAGE. After protein separation (120 V for 120 min) the gel was stained using Coomassie Brilliant Blue R-250. Autoradiography was performed using an imaging plate (Fujifilm, Tokyo, Japan) and images were obtained with a FLA-5000 Imaging System (Fujifilm).

[2] = biological target: T2, IN–GCN2 interaction (UniProt P04585+Q9P2K8); assay: IN–GCN2 interaction assay (AlphaLISA); format: binding, HIV-1 IN / human GCN2; conditions: for effect on the IN–GCN2 interaction: A-92: over a wide concentration range, MK-2048: nanomolar or low micromolar ranges
T2 construct: expressed as a truncated version (192-1024) in fusion after a glutathione S-transferase tag; Recombinant full-length IN was expressed in E. coli BL21 pLys; purchased SignalChem (GCN2); IN made in house in E. coli BL21 pLys E12-11G; host or cells: E. coli BL21 pLys (IN)
Description: We developed an in vitro plate-based assay to monitor the interaction between GCN2 and IN using the AlphaLISA technology (Figure 1). Taking advantage of the tags present on each recombinant protein (6xHis for IN prepared “in-house”, and GST for GCN2 commercially available), we used specific beads that fluoresce only when they are in close proximity (<200 nm). The signal obtained (light count) is directly proportional to the binding of IN to GCN2 (homogenous solution assay at steady state).
IN–GCN2 interaction assay. Protein–protein interactions were monitored using the AlphaLISA technology (Perkin Elmer) taking advantage of the GST and 6xHis tags of GCN2 and IN, respectively. Accordingly, AlphaScreen GSH Donor beads and AlphaLISA Nickel Acceptor beads were used (Perkin Elmer). Reactions were carried out at room temperature by incubating GCN2 with drugs or DMSO for 5 min before addition of AlphaLISA Nickel Acceptor beads. After 5 min, IN was added to the reaction mixture and incubated for 20 min before adding the AlphaScreen GSH Donor beads. This interaction assay was performed in conditions similar to the in vitro phosphorylation assay, already described, using 25 nM GCN2 and 700 nM (except indicated otherwise) in a reaction buffer containing 50 mM Tris-HCl pH 7.5, 40 mM NaCl, 1 mM dithiothreitol (DTT), 0.05% Tween 20, 0.1% bovine serum albumin (BSA), 10 µg/mL of each donor and acceptor beads. Alpha signal was measured using an EnSight plate reader (Perkin Elmer) 120 min after the addition of the latest component of the reaction (unless indicated otherwise).

[3] = biological target: T3, IN's phosphorylation catalyzed by GCN2 (Homo sapiens, UniProt Q9P2K8); assay: In vitro phosphorylation assay: phosphorylation of IN catalyzed by GCN2; format: biochemical, human GCN2 / HIV-1 IN; conditions: for inhibition at 100 µM: read-out: decrease (inhibition) in IN phosphorylation; for concentration giving full inhibition of IN phosphorylation: serial dilutions from 300 µM to 137 nM
T3 construct: expressed as a truncated version (192-1024) in fusion after a glutathione S-transferase tag; purchased SignalChem (GCN2); IN made in house in E. coli BL21 pLys E12-11G; host or cells: E. coli BL21 pLys (IN)
T3 sequence (Q9P2K8 192-1024): T1 sequence (Q9P2K8 192-1024)
Protocol: Enzymes. GCN2 was purchased from SignalChem (EIF2AK4, cat. #E12-11G). […] Recombinant full-length IN was expressed in E. coli BL21 pLys (IPTG induction) and purified on a nickel chelating column, as described. Integrity and purity were checked by direct Coomassie coloration of elution fractions on SDS-PAGE before dialysis to remove imidazole.
as §1, with “Phosphorylation of IN (700 nM) was carried out using 25 nM of GCN2 in a reaction buffer containing 10 mM Tris-HCl pH 7.5, 50 mM NaCl, 15 mM MgCl2, 7.5 mM MnCl2, 10 mM DTT, 0.005% Nonidet P-40, 100 µM ATP, 50 µCi/µL of [γ-^32P]-ATP (3000 Ci/mmole, Perkin Elmer).” left out

[4] = biological target: T4, HIV-1 IN (Human immunodeficiency virus type 1 group M subtype B, UniProt P04585); assay: Integrase reaction, strand transfer (ST), gel-based; format: biochemical
T4 construct: Recombinant full-length IN was expressed in E. coli BL21 pLys; 6xHis; made in house; host or cells: E. coli BL21 pLys
Protocol: (§2) Oligonucleotides. Oligonucleotides were purchased from Integrated DNA Technologies, Inc. (Leuven, Belgium), purified on polyacrylamide gel through electro-elution and dissolve in water. 19T ([…]) and 21B ([…]) correspond to the cleaved and non-cleaved strands specifically recognized by HIV-1 IN. Radiolabeling of 19T at the 5′-end was performed with [γ-^32P] ATP (Perkin-Elmer, Villebon-sur-Yvette, France) using T4 polynucleotide kinase (Promega, Charbonnières-les-Bains, France), according to the manufacturers’ instructions. Unincorporated isotopes were removed using illustra microspin G-25 Columns (Cytiva life sciences, Amersham, Little Chalfont, United Kingdom). DNA duplexes were annealed using an equimolar ratio of the complementary strand 21B, heating to 95 °C, and slow cooling to room temperature.
Integrase reactions. IN reactions were carried out by adding molecules or an equivalent volume of 100% DMSO (dimethyl sulfoxide, used as the drug solvent) to a mixture of 20 nM duplex DNA (19T/21B) and 400 nM IN in 50 mM MOPS pH 7.2, 7.5 mM MgCl2, and 14 mM 2-mercaptoethanol. Reactions were performed at 37 °C for 1 h and quenched by addition of an equal volume (10 µL) of loading buffer [formamide containing 1% SDS (sodium dodecyl sulfate), 0.25% bromophenol blue, and xylene cyanol]. Reaction products were separated in 16% polyacrylamide denaturing sequencing gels. Dried gels were visualized using a FLA-5000 imaging system (Fujifilm). Densitometric analyses were performed using the ImageQuant 5.1 software (GE Healthcare, Chicago, IL, USA) and data analyzed using Prism 6.05 software (GraphPad, San Diego, CA, USA).

[5] = biological target: T4, HIV-1 IN; assay: Integrase reaction, 3'-processing (3'-P), gel-based; format: biochemical; conditions: gel-based assay
Protocol: as §2
Integrase reactions. IN reactions were carried out by adding molecules or an equivalent volume of 100% DMSO (dimethyl sulfoxide, used as the drug solvent) to a mixture of 20 nM duplex DNA (19T/21B) and 400 nM IN in 50 mM MOPS pH 7.2, 7.5 mM MgCl2, and 14 mM 2-mercaptoethanol. […] Densitometric analyses were performed using the ImageQuant 5.1 software (GE Healthcare, Chicago, IL, USA) and data analyzed using Prism 6.05 software (GraphPad, San Diego, CA, USA).

[6] = pilot screen, single dose of 100 µM, read-out: inhibition of the IN–GCN2 interaction signal
[7] = single dose of 100 µM, compared to DMSO
[8] = 100 µM, dose-response experiment
[9] = pilot screen, single dose of 100 µM

C=CC(=O)Nc1cc(Nc2nccc(-c3cn(C)c4ccccc34)n2)c(OC)cc1N(C)CCN(C)C [NSC779217, Osimertinib]
decrease in GCN2 auto-phosphorylation [1]: around 20%
inhibition at 100 µM [2, 6]: 83.5%
inhibition at 100 µM [3, 7]: ~20%

Cc1cn(-c2cc(NC(=O)c3ccc(C)c(Nc4nccc(-c5cccnc5)n4)c3)cc(C(F)(F)F)c2)cn1 [NSC747599, Nilotinib]
decrease in GCN2 auto-phosphorylation [1]: no effect
inhibition at 100 µM [3, 7]: 40%

Clc1ccc(C(c2ccccc2Cl)C(Cl)Cl)cc1 (stereo not shown) [NSC38721, Mitotane]
value (signal) at the highest dose in the dose-response experiment [2, 8]: 248.5%
increase in signal (IN–GCN2 interaction) ([2]; pilot screen, 100 µM, compared to the DMSO control): 299.9%
inhibition at 100 µM [3, 7]: ~30%
effect on IN strand transfer activity ([4]; serial dilutions from 100 µM to 45.7 nM, only IN present): inactive

CC1=C(/C=C/C(C)=C/C=C/C(C)=C/C(=O)O)C(C)(C)CCC1 [NSC122758, Tretinoin]
decrease in GCN2 auto-phosphorylation [1]: no impact
value (signal) at the highest dose in the dose-response experiment [2, 8]: 10.5%
inhibition at 100 µM ([2]; 100 µM, dose-response experiment, corresponding to the printed signal, read-out: inhibition at the highest dose in the dose-response experiment): 89.5%
inhibition at 100 µM [2, 6]: 87.3%
decrease (inhibition) in IN phosphorylation [3, 7]: no impact

c1nn(C2CCOCC2)cc1Nc1ncc2nnn(-c3ccc4cn[nH]c4c3)c2n1 [A-92]
IC50 ([1]; read-out: apparent IC50, GCN2's activation (autophosphorylation)): ~200 nM
doses with a slight impact on IN–GCN2 interaction [2]: above 333 µM
inhibition at 1000 µM ([2]; 1 mM): < 20%
effect on the IN–GCN2 interaction [2]: did not affect

CC[C@@]1(O)C(=O)OCc2c1cc1n(c2=O)Cc2cc3c(CN(C)C)c(O)ccc3nc2-1 [topotecan, Topotecan hydrochloride]
inhibition of the IN–GCN2 interaction signal [2, 9]: no effect

CCN1C[C@@H](C)n2c(c(O)c3c(=O)n(Cc4ccc(F)c(Cl)c4)nc(C(=O)NC)c32)C1=O [MK-2048]
IC50 [5]: 2000 nM
effect on the IN–GCN2 interaction [2]: did not affect
IC50 ([2]; read-out: apparent IC50, IN–GCN2 interaction): ~100000 nM
IC50 ([4]; gel-based assay, read-out: apparent IC50, inhibition of ST): 20 nM

CCc1c2c(nc3ccc(OC(=O)N4CCC(N5CCCCC5)CC4)cc13)-c1cc3c(c(=O)n1C2)COC(=O)[C@]3(O)CC [irinotecan, Irinotecan hydrochloride]
inhibition of the IN–GCN2 interaction signal [2, 9]: no effect

CC1(C)CCC(CN2CCN(c3ccc(C(=O)NS(=O)(=O)c4ccc(NCC5CCOCC5)c([N+](=O)[O-])c4)c(Oc4cnc5[nH]ccc5c4)c3)CC2)=C(c2ccc(Cl)cc2)C1 [NSC766270, Venetoclax]
decrease in GCN2 auto-phosphorylation [1]: no impact
inhibition at 100 µM [2, 6]: 93.6%
decrease (inhibition) in IN phosphorylation [3, 7]: no impact

Cc1ccc(C(=O)Nc2ccc(CN3CCN(C)CC3)c(C(F)(F)F)c2)cc1C#Cc1cnc2cccnn12 [NSC758487, Ponatinib]
decrease in GCN2 auto-phosphorylation [1]: around 35%
inhibition at 100 µM [3]: > 80%
concentration giving full inhibition of IN phosphorylation [3]: without reaching full inhibition

CNCc1ccc(-c2[nH]c3cc(F)cc4c3c2CCNC4=O)cc1 [NSC756644, Rucaparib phosphate]
concentration giving full inhibition of GCN2 auto-phosphorylation ([1]; serial dilutions from 300 µM to 137 nM): 300 µM
decrease in GCN2 auto-phosphorylation [1]: ~80%
concentration giving full inhibition of IN phosphorylation [3]: 300 µM
decrease (inhibition) in IN phosphorylation [3, 7]: inhibited
